The first assay addresses GST tagged truncated human mutant G2019S LRRK2 (Homo sapiens (Human), UniProt Q5S007, G2019S). Briefly: LRRK2 Km ATP LanthaScreen Assay. The class given is biochemical. As to conditions: 134 μM ATP (Km ATP), LRRKtide substrate, negative log of mean IC50 (molar). How it is done: Unless otherwise noted, all reactions are magnetically stirred. Unless otherwise noted, when diethyl ether is used in the experiments described below, it is Fisher ACS certified material and is stabilized with BHT. Unless otherwise noted, “concentrated” and/or “solvent removed under reduced pressure” means evaporating the solvent from a solution or mixture using a rotary evaporator or vacuum pump. Unless otherwise noted, flash chromatography is carried out on a Teledyne Isco (Lincoln, NE), Analogix (Burlington, WI), or Biotage (Stockholm, SWE) automated chromatography system using a commercially available cartridge as the column. Columns may be purchased from Teledyne Isco, Analogix, Biotage, Varian (Palo Alto, CA), or Supelco (Bellefonte, PA) and are usually filled with silica gel as the stationary phase. Reversed phase preparative HPLC conditions, where used, can be found at the end of each experimental section. Aqueous solutions were concentrated on a Genevac (Ipswich, ENG) or by freeze-drying/lyophilization. Unless otherwise noted, all LRRK2 pIC50 data presented in tables refers to the LRRK2 G2019S Km ATP LanthaScreen™ assay (Life Technologies Corp., Carlsbad, CA) that is described in the Biological Assay section.
Biological Assay: LRRK2 Km ATP LanthaScreen™ Assay
Compound potency against LRRK2 kinase activity was determined using LanthaScreen™ technology from Life Technologies Corporation (Carlsbad, CA) using a GST20 tagged truncated human mutant G2019S LRRK2 in the presence of the fluorescein-labeled peptide substrate LRRKtide® (LRRK2 phosphorylated ezrin/radixin/moesin (ERM)), also from Life Technologies. The data presented for the Km ATP LanthaScreen™ Assay represents mean IC50 values based on several test results and may have reasonable deviations depending on the specific conditions and reagents used. Km is the Michaelis constant of an enzyme and is defined as the concentration of native substrate (ATP for a kinase) which permits the enzyme to achieve half Vmax (Vmax=rate of reaction when the enzyme is saturated with substrate). IC50 (half-maximal inhibitory concentration) represents the concentration of inhibitor required to inhibit LRRK2 kinase activity by 50%. Assays were performed in the presence of 134 μM ATP (Km ATP). Upon completion, the assay was stopped, and phosphorylated substrate detected with a terbium (Tb)-labeled anti-pERM antibody (cat. no. PV4898). The compound dose response was prepared by diluting a 10 mM stock of compound to a maximum concentration of 9.99 μM in 100% DMSO, followed by custom fold serial dilution in DMSO nine times. 20 nL of each dilution was spotted via a Labcyte Echo onto a 384-well black-sided plate (Corning 3575) followed by 15 μL of a 1.25 nM enzyme solution in 1× assay buffer (50 mM Tris pH 8.5, 10 mM MgCl2, 0.01% Brij-35, 1 mM EGTA, 2 mM dithiothreitol, 0.05 mM sodium orthovanadate). Following a 15-min incubation period at rt, the kinase reaction was started with the addition of 5 μL of 400 nM fluorescein-labeled LRRKtide® (LRRK2 phosphorylated ezrin/radixin/moesin (ERM)) peptide substrate and 134 μM ATP solution in 1× assay buffer. The reaction was allowed to progress at ambient temperature for 90 min. The reaction was then stopped by the addition of 20 μL of TR-FRET Dilution Buffer (Life Technologies, Carlsbad, CA) containing 2 nM Tb-labeled anti-phospho LRRKtide® (LRRK2 phosphorylated ezrin/radixin/moesin (ERM)) antibody and 10 mM EDTA (Life Technologies, Carlsbad, CA). After an incubation period of 1 h at rt, the plate was read on an EnVision® multimode plate reader (Perkin Elmer, Waltham, MA) with an excitation wavelength of 337 nm (Laser) and a reading emission at both 520 and 495 nm. Compound IC50 values were interpolated from nonlinear regression best-fits of the log of the final compound concentration, plotted as a function of the 520/495-nm emission ratio using activity base “Abase”). Abase uses a 4 parameter (4P) logistic fit based on the Levenberg-Marquardt algorithm. […]
(In general: Time-resolved FRET reads energy transfer from a long-lived donor to a nearby acceptor.)
Chain of GST tagged truncated human mutant G2019S LRRK2 (Q5S007 970-2527 G2019S): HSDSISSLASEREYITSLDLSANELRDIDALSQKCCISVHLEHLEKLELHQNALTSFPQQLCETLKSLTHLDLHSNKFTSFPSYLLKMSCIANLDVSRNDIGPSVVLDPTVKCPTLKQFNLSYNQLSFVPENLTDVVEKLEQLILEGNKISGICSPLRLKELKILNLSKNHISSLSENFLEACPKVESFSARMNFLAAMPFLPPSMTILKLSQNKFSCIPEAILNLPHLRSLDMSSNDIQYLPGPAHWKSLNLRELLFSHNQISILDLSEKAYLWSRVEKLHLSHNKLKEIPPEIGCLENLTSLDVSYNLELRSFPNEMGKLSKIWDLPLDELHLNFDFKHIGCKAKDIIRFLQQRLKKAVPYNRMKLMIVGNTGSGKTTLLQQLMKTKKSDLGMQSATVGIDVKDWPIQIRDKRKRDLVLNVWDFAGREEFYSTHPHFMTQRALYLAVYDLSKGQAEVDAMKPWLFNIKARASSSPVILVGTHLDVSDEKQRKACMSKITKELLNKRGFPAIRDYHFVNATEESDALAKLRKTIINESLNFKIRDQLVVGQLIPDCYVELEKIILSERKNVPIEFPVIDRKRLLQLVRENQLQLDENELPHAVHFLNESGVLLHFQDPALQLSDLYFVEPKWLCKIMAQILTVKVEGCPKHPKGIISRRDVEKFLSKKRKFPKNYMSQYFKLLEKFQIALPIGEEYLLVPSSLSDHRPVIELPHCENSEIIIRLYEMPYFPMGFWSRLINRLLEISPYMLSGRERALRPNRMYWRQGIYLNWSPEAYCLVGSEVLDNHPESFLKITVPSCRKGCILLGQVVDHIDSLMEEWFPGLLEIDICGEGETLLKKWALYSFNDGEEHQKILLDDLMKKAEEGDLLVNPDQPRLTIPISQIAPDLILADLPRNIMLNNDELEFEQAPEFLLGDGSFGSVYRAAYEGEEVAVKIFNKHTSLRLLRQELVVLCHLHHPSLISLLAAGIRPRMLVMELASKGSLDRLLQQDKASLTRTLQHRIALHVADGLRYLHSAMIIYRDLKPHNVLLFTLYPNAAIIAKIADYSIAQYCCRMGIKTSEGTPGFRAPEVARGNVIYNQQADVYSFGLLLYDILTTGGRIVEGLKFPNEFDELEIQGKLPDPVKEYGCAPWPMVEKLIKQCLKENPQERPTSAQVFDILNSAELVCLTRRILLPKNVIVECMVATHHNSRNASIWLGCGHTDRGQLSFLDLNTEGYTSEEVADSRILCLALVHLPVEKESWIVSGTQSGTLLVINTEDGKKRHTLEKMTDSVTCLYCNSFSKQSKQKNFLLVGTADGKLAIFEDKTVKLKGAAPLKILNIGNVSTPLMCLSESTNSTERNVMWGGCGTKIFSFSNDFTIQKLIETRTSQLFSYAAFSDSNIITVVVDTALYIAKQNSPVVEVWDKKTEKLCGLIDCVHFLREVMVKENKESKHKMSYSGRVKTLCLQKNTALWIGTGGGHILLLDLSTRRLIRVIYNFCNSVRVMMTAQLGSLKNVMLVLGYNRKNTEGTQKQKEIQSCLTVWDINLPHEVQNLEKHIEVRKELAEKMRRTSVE
As for `Cc1nn(C(C)C2CC2)cc1NC(=O)c1csc(-c2cn[nH]c2)n1` (single isomer, unassigned) [Example 2-3, (R)- or (S)-N-{1-[1-cyclopropylethyl]-3-methyl-1H-pyrazol-4-yl}-2-(1H-pyrazol-4-yl)-1,3-thiazole-4-carboxamide], the “LRRK2 pIC50” value is reported as 6.99.

`Cc1nn(C(C)C2CC2)cc1NC(=O)c1csc(-c2cn[nH]c2)n1` (single isomer, unassigned) [Example 2-4, (S)- or (R)-N-{1-[1-cyclopropylethyl]-3-methyl-1H-pyrazol-4-yl}-2-(1H-pyrazol-4-yl)-1,3-thiazole-4-carboxamide]: the “LRRK2 pIC50” value is 6.82.

As to `CC(C1CC1)n1ncc(NC(=O)c2csc(-c3cn[nH]c3)n2)c1C(F)F` (single isomer, unassigned) [Example 3-4, (R)- or (S)—N-(1-(1-cyclopropylethyl)-5-(difluoromethyl)-1H-pyrazol-4-yl)-2-(1H-pyrazol-4-yl)thiazole-4-carboxamide], the “LRRK2 pIC50” value came to 5.69.

On to `CC(C1CC1)n1ncc(NC(=O)c2csc(-c3cn[nH]c3)n2)c1C(F)F` (single isomer, unassigned) [Example 3-5, (S)- or (R)—N-(1-(1-cyclopropylethyl)-5-(difluoromethyl)-1H-pyrazol-4-yl)-2-(1H-pyrazol-4-yl)thiazole-4-carboxamide], for which the “LRRK2 pIC50” value worked out at 5.92.

For `O=C(Nc1cnn(C2CCC2)c1)c1csc(-c2cn[nH]c2)n1` [Example 1-1, N-(1-Cyclobutyl-1H-pyrazol-4-yl)-2-(1H-pyrazol-4-yl)thiazole-4-carboxamide], the “LRRK2 pIC50” value is 8.01.

Consider `COc1nn(CC(F)(F)F)cc1NC(=O)c1csc(-c2cn[nH]c2)n1` [Example 1-2, N-(3-Methoxy-1-(2,2,2-trifluoroethyl)-1H-pyrazol-4-yl)-2-(1H-pyrazol-4-yl)thiazole-4-carboxamide], for which the “LRRK2 pIC50” value came out at 7.46.

As to `Cc1nn(C2CCC2)cc1NC(=O)c1csc(-c2cn[nH]c2)n1` [Example 1-3, N-(1-Cyclobutyl-3-methyl-1H-pyrazol-4-yl)-2-(1H-pyrazol-4-yl)thiazole-4-carboxamide], the “LRRK2 pIC50” value was 7.83.

`CNC(=O)c1nn(C)cc1NC(=O)c1csc(-c2cn[nH]c2)n1` [Example 1-4, N-[1-methyl-3-(methylcarba-moyl)-1H-pyrazol-4-yl]-2-(1H-pyrazol-4-yl)-1,3-thiazole-4-carboxamide]: the “LRRK2 pIC50” value was 8.15.

As for `Cc1nn(C(F)F)cc1NC(=O)c1csc(-c2cn[nH]c2)n1` [Example 1-5, N-[1-(difluoromethyl)-3-methyl-1H-pyrazol-4-yl]-2-(1H-pyrazol-4-yl)-1,3-thiazole-4-carboxamide], the “LRRK2 pIC50” value came to 7.08.

Regarding `O=C(Nc1cn(C2CC2)nc1C1CC1)c1csc(-c2cn[nH]c2)n1` [Example 1-6, N-(1,3-dicyclopropyl-1H-pyrazol-4-yl)-2-(1H-pyrazol-4-yl)-1,3-thiazole-4-carboxamide], the “LRRK2 pIC50” value was 7.84.

With `CC(C)n1cc(NC(=O)c2csc(-c3cn[nH]c3)n2)c(OCC(F)(F)F)n1` [Example 1-7, N-[1-(1-methylethyl)-3-(2,2,2-trifluoroethoxy)-1H-pyrazol-4-yl]-2-(1H-pyrazol-4-yl)-1,3-thiazole-4-carboxamide], the “LRRK2 pIC50” value is listed as 7.17.

`O=C(Nc1cnn(-c2ccncc2)c1)c1csc(-c2cn[nH]c2)n1` [Example 1-8, 2-(1H-pyrazol-4-yl)-N-(1-pyridin-4-yl-1H-pyrazol-4-yl)-1,3-thiazole-4-carboxamide]: the “LRRK2 pIC50” value stood at 8.07.

For `Cn1cc(NC(=O)c2csc(-c3cn[nH]c3)n2)c(-c2ccncc2)n1` [Example 1-9, N-(1-methyl-3-pyridin-4-yl-1H-pyrazol-4-yl)-2-(1H-pyrazol-4-yl)-1,3-thiazole-4-carboxamide], the “LRRK2 pIC50” value came to 7.09.

On to `CCn1cc(NC(=O)c2csc(-c3cn[nH]c3)n2)c(C#N)n1` [Example 1-10, N-(3-cyano-1-ethyl-1H-pyrazol-4-yl)-2-(1H-pyrazol-4-yl)-1,3-thiazole-4-carboxamide], for which the “LRRK2 pIC50” value was 7.30.

As for `Cn1cc(NC(=O)c2csc(-c3cn[nH]c3)n2)c(-c2ccc(F)cc2)n1` [Example 1-11, N-[3-(4-fluorophenyl)-1-methy1-1H-pyrazol-4-yl]-2-(1H-pyrazol-4-yl)-1,3-thiazole-4-carboxamide], the “LRRK2 pIC50” value was 7.90.

As to `CCn1cc(NC(=O)c2csc(-c3cn[nH]c3)n2)c(-c2nnc3n2CCCC3)n1` [Example 1-12, N-[1-ethyl-3-(5,6,7,8-tetrahydro[1,2,4]triazolo[4,3-a]pyridin-3-yl)-1H-pyrazol-4-yl]-2-(1H-pyrazol-4-yl)-1,3-thiazole-4-carboxamide], the “LRRK2 pIC50” value amounted to 7.53.

Take `Cn1cc(NC(=O)c2csc(-c3cn[nH]c3)n2)c(C(N)=O)n1` [Example 1-13, N-(3-carbamoyl-1-methyl-1H-pyrazol-4-yl)-2-(1H-pyrazol-4-yl)-1,3-thiazole-4-carboxamide]: the “LRRK2 pIC50” value amounted to 8.17.

Consider `COc1nn(C)cc1NC(=O)c1csc(-c2cn[nH]c2)n1` [Example 1-14, N-(3-methoxy-1-methyl-1H-pyrazol-4-yl)-2-(1H-pyrazol-4-yl)-1,3-thiazole-4-carboxamide], for which the “LRRK2 pIC50” value was determined as 7.13.

`Cn1cc(NC(=O)c2csc(-c3cn[nH]c3)n2)c(C(F)F)n1` [Example 1-15, N-[3-(difluoromethyl)-1-methyl-1H-pyrazol-4-yl]-2-(1H-pyrazol-4-yl)-1,3-thiazole-4-carboxamide]: the “LRRK2 pIC50” value turned out to be 7.79.

For `CC(C)Oc1nn(C)cc1NC(=O)c1csc(-c2cn[nH]c2)n1` [Example 1-16, N-[1-methyl-3-(1-methylethoxy)-1H-pyrazol-4-yl]-2-(1H-pyrazol-4-yl)-1,3-thiazole-4-carboxamide], the “LRRK2 pIC50” value worked out at 7.43.

On to `CC(C)(C)n1cc(NC(=O)c2csc(-c3cn[nH]c3)n2)cn1` [Example 1-17, N-(1-tert-butyl-1H-pyrazol-4-yl)-2-(1H-pyrazol-4-yl)-1,3-thiazole-4-carboxamide], for which the “LRRK2 pIC50” value is 7.22.

Turning to `O=C(Nc1cnn(C2CC2)c1)c1coc(-c2cn[nH]c2)n1` [Example 1-18, N-(1-cyclopropyl-1H-pyrazol-4-yl)-2-(1H-pyrazol-4-yl)-1,3-oxazole-4-carboxamide], the “LRRK2 pIC50” value stood at 6.75.

`COC(=O)c1nn(C)cc1NC(=O)c1csc(-c2cn[nH]c2)n1` [Example 1-19, methyl 1-methyl-4-({[2-(1H-pyrazol-4-yl)-1,3-thiazol-4-yl]carbonyl}amino)-1H-pyrazole-3-carboxylate]: the “LRRK2 pIC50” value came to 8.66.

Regarding `CC(C)n1cc(NC(=O)c2csc(-c3cn[nH]c3)n2)cn1` [Example 1-20, N-[1-(1-methylethyl)-1H-pyrazol-4-yl]-2-(1H-pyrazol-4-yl)-1,3-thiazole-4-carboxamide], the “LRRK2 pIC50” value came out at 7.68.

Still in this assay, the particulars now being: 134 μM ATP (Km ATP), LRRKtide substrate, negative log of mean IC50 (molar), read-out: LRRK2 pIC50 (converted).
Turning to `CC(C1CC1)n1cc(NC(=O)c2csc(-c3cn[nH]c3)n2)cn1` (single isomer, unassigned) [Example 2-1, (R)- or (S)—N-(1-(1-cyclopropylethyl)-1H-pyrazol-4-yl)-2-(1H-pyrazol-4-yl)thiazole-4-carboxamide], the IC50 is 32.4 nM.

Consider `CC(C1CC1)n1cc(NC(=O)c2csc(-c3cn[nH]c3)n2)cn1` (single isomer, unassigned) [Example 2-2, (S)- or (R)—N-(1-(1-cyclopropylethyl)-1H-pyrazol-4-yl)-2-(1H-pyrazol-4-yl)thiazole-4-carboxamide], for which the IC50 is 38 nM.

The record behind these values is US20240174679A1, “HETEROAROYL AMIDES AS LRRK2 INHIBITORS, PHARMACEUTICAL COMPOSITIONS, AND USES THEREOF” (MERCK SHARP & DOHME LLC, priority 2021, published 2024).
